Measured values reported in patent US10450340B2, “3′-deamino-3′-(2″-pyrroline-1″-yl)-5-imino-13-deoxyanthracyclines and methods of preparation” (priority 2017, dated 2019).
Read-outs that look alike come from different tables or passages of the source. Marks after values point to notes of the source that are not given here.

Assays:
[1] = system: SW-872 liposarcoma cells; assay: Antiproliferative activity, resazurin assay, SW-872; assay type: cell-based; details: Homo sapiens, read-out: Drug IC50 Values
Procedure: (§1) The growth inhibitory potency of 2-pyrrolino-5-imino-13-deoxydoxorubicin IV, 5-imino-13-deoxydoxorubicin III, and doxorubicin I against several cancer cell lines was evaluated using the resazurin fluorescence assay. The growth inhibitory potency was measured as the inhibitory concentration of a compound required to inhibit cell growth by 50% (IC50). The cancer cells were seeded into 96-well plates (0.5-1×10^4 cells/well) with appropriate media, incubated with drug for 48 hours, and then treated with resazurin (final concentration, 0.01%), a non-fluorescent blue dye, for 24 hours. The fluorescence (Ex560 nm/Em590 nm) was recorded using a BioTek SynergyHT multiwell plate fluorimeter. Healthy cells metabolize resazurin to resorufin, a fluorescent pink dye. Thus, fluorescence is a proxy for cell viability and used to determine the effect of cytotoxic agents on cell cultures. […] The activity of 2-pyrrolino-5-imino-13-deoxydoxorubicin IV was also greater than that of doxorubicin I, with IC50 values that were, on average, lower than those of doxorubicin I.

[2] = system: RD rhabdomyosarcoma cells; assay: Antiproliferative activity, resazurin assay, RD; assay type: cell-based; details: Homo sapiens, Rhabdomyosarcoma cell, read-out: Drug IC50 Values
Procedure: as §1

[3] = system: GCT histiocytoma cells; assay: Antiproliferative activity, resazurin assay, GCT; assay type: cell-based; details: Homo sapiens, read-out: Drug IC50 Values
Procedure: as §1

[4] = system: HeLa cervical adenocarcinoma cells; assay: Antiproliferative activity, resazurin assay, HeLa; assay type: cell-based; details: Homo sapiens, read-out: Drug IC50 Values
Procedure: as §1

[5] = system: T47D breast ductal carcinoma cells; assay: Antiproliferative activity, resazurin assay, T47D; assay type: cell-based; details: Homo sapiens, read-out: Drug IC50 Values
Procedure: as §1

[6] = system: human cancer cell lines; assay: Antiproliferative activity, average over the five cancer cell lines of Table 1; assay type: cell-based; details: for times more potent against cancer cells than a normal non-cancer cell line, on average: HADF IC50 / average cancer cell IC50; for IC50: Homo sapiens, read-out: Average Drug IC50 Values
Procedure: as §1
Even more unexpected and not predicted was that the selectivity of compound IV for cancer cells versus normal cells is shown to be 40 times greater compared to compound I (doxorubicin).

[7] = system: HADF human adult dermal fibroblasts; assay: Cytotoxicity against normal cell line, resazurin assay; assay type: cell-based; details: for IC50: Fibroblast, read-out: Drug IC50 Values
Procedure: as §1
The compounds were also tested against a normal non-cancer cell line, normal human fibroblasts (HADF).

[8] = system: MES-SA cells; assay: Antiproliferative activity, doxorubicin sensitive uterine fibrosarcoma; assay type: cell-based; details: Homo sapiens, read-out: Drug IC50 Values
Procedure: as §1
(§2) The compounds were further tested against a uterine fibrosarcoma cell line, MES-SA, sensitive to doxorubicin (compound I), and against a uterine fibrosarcoma cell line MES-SA/MX2 resistant to doxorubicin.

[9] = system: MES-SA/MX2 cells; assay: Antiproliferative activity, doxorubicin resistant uterine fibrosarcoma; assay type: cell-based, human; details: for IC50: Homo sapiens, read-out: Drug IC50 Values; for potency in the resistant fibrosarcoma strain compared to the sensitive strain (times less potent): MES-SA/MX2 versus MES-SA
Procedure: as §1, §2

[10] = system: HT1080-luc fibrosarcoma cells; assay: Inhibitory potency against HT1080-luc in vitro; assay type: cell-based; details: Homo sapiens, read-out: IC50±SEM
Procedure: The growth inhibitory potency of 2-pyrrolino-5-imino-13-deoxydoxorubicin IV, 5-imino-13-deoxydoxorubicin III, and doxorubicin I against several cancer cell lines was evaluated using the resazurin fluorescence assay. The growth inhibitory potency was measured as the inhibitory concentration of a compound required to inhibit cell growth by 50% (IC50). The cancer cells were seeded into 96-well plates (0.5-1×10^4 cells/well) with appropriate media, incubated with drug for 48 hours, and then treated with resazurin (final concentration, 0.01%), a non-fluorescent blue dye, for 24 hours. The fluorescence (Ex560 nm/Em590 nm) was recorded using a BioTek SynergyHT multiwell plate fluorimeter. Healthy cells metabolize resazurin to resorufin, a fluorescent pink dye. Thus, fluorescence is a proxy for cell viability and used to determine the effect of cytotoxic agents on cell cultures. […]
To assess in vivo drug activity against a primary tumor growth model of sarcoma, an experiment was conducted using commercially available human HT1080 fibrosarcoma cells engineered to express luciferase (HT1080-luc; PerkinElmer). The inhibitory potency of Compound III and Compound IV against HT1080-luc was measured in vitro by the methods described in Example 2. […]

[11] = system: HT1080-luc tumors; assay: Primary tumor growth model of sarcoma in SCID mice; assay type: in vivo; details: for Averge tumor weight / tumor weight reduced / tumor progression by in vivo bioluminescent imaging: day 20; for Averge tumor weight: SCID mice; for tumor weight reduced: 2.4 mg/kg, relative to PBS; for tumor progression by in vivo bioluminescent imaging: relative to PBS-only treatment
Procedure: To assess in vivo drug activity against a primary tumor growth model of sarcoma, an experiment was conducted using commercially available human HT1080 fibrosarcoma cells engineered to express luciferase (HT1080-luc; PerkinElmer). The inhibitory potency of Compound III and Compound IV against HT1080-luc was measured in vitro by the methods described in Example 2. […] HT1080-luc tumors were initiated in 6 week old female SCID mice (Harlan) by orthotopic subcutaneous injection of 1×10^6 cells in each flank. After allowing the tumors to establish for 6 days, mice were randomized to one of three treatment groups and treated three times per week by intraperitoneal injection with compound IV or compound III, 2.4 mg/kg in physiological buffered saline (PBS), or vehicle (PBS). […] At day 20 tumor weight was reduced 53% with compound IV while reduced only 36% with compound III at the same given dose. […] This is in contrast to 2-pyrrolinodoxorubicin which can be lethal at its effective dose range.

[12] = system: HT1080 fibrosarcoma cells; assay: cells; assay type: cell-based; details: for IC50 / IC10: 48 hours; for IC10: concentration inhibiting cell growth by 10%
Procedure: A fibrosarcoma cell line, HT1080, was used to measure the IC50's and IC10's (the inhibitory concentration of a compound required to inhibit cell growth by 10%) of Compound IV and Compound III, as described in Example 2. An IC50 concentration represents a therapeutic amount of compound. […] The cells were passaged and seeded at 5,000 cells/well on 96-well plates and the plates were incubated for 24 hours. After incubation, the media was changed and the IC50's and IC10's of compound IV and compound III were measured after 48 hours of incubation. Then, the IC50's of compound IV in the presence of compound III at an IC10 concentration and of compound III in the presence of compound IV at an IC10 concentration were measured after 48 hours of incubation. After the incubations, […] of 0.1% AlamarBlue in 1×PBS was added to each well. The plates were then incubated for a final 24 h. The plates were read on a microplate reader with an ex/em of 485/528.

[13] = system: advanced tumors; details: patients with advanced tumors; cited from earlier work
[14] = literature; cited from earlier work
[15] = system: cancer cells versus normal cells; details: as reported; cited from earlier work
[16] = system: topoisomerase II; details: compared with doxorubicin; Stepankova et al.; cited from earlier work
[17] = SW872, SW-872 liposarcoma, 48 hours drug, resazurin, mean ±SEM of 3 assays
[18] = RD rhabdomyosarcoma, 48 hours drug, resazurin, mean ±SEM of 3 assays
[19] = GCT histiocytoma, 48 hours drug, resazurin, mean ±SEM of 3 assays
[20] = HeLa cervical adenocarcinoma, 48 hours drug, resazurin, mean ±SEM of 3 assays
[21] = T47D breast ductal carcinoma, 48 hours drug, resazurin, mean ±SEM of 3 assays
[22] = average of SW-872, RD, GCT, HeLa, T47D
[23] = HADF normal human adult dermal fibroblasts, resazurin
[24] = MES-SA uterine fibrosarcoma (sensitive), mean ±SEM of 3 assays
[25] = MES-SA/MX2 uterine fibrosarcoma (resistant), mean ±SEM of 3 assays
[26] = 2.4 mg/kg intraperitoneal three times per week

Structure (SMILES)	IC50 [1, 17]	IC50 [2, 18]	IC50 [3, 19]	IC50 [4, 20]	IC50 [5, 21]	times more potent against cancer cells than a normal non-cancer cell line, on average [6]	IC50 [6, 22]	IC50 [7, 23]	IC50 [8, 24]	IC50 [9, 25]	potency in the resistant fibrosarcoma strain compared to the sensitive strain (times less potent) [9]	Averge tumor weight [11, 26]	tumor weight reduced [11]	tumor progression by in vivo bioluminescent imaging [11]	IC10 ([12]; compound alone, HT1080)	also measured
COc1cccc2c1C(=O)c1c(O)c3c(c(O)c1C2=O)C[C@@](O)(C(=O)CO)C[C@@H]3O[C@H]1C[C@H](N)[C@H](O)[C@H](C)O1 [Compound I, doxorubicin]	33.7 ± 7.5 µM	0.43 ± 0.15 µM	0.279 ± 0.036 µM	0.605 ± 0.095 µM	10.3 ± 7.8 µM	2 times	9.06 µM	18.9 µM	0.55 ± 0.08 µM	7.8 ± 1.8 µM	14 times					
COc1cccc2c1C(=N)c1c(O)c3c(c(O)c1C2=O)C[C@@](O)(CCO)C[C@@H]3OC1CC(N)C(O)C(C)O1 (stereo partly drawn) [Compound III, 5-imino-13-deoxydoxorubicin]	7.38 ± 0.45 µM	11.9 ± 3.99 µM	3.37 ± 0.35 µM	9.82 ± 0.93 µM	18 µM	5.8 times	10.1 µM	58.9 µM	10.5 ± 1 µM	90 µM		1.40 g	36%	not significantly reduced	5.34 µM	IC50 ([10]; HT1080-luc in vitro, methods of Example 2): 10 ± 6.1 µM; times more potent in the presence of a nontherapeutic amount (IC10) of the other compound [12]: 35 times; IC50 ([12]; Homo sapiens, HT-1080, 48 h, HT1080, read-out: IC50 of compound III in the presence of an IC10 of compound IV): 1.78 µM; IC50 ([12]; Homo sapiens, HT-1080, 48 h, compound alone, HT1080, read-out: IC50): 63.4 µM; IC50 ([12]; compound alone, HT1080, read-out: IC50): 63.7 µM; anticancer activity in Phase I clinical trial [13]: anticancer activity in a variety of carcinomas, sarcomas, and bladder cancer; tolerability in Phase I clinical trial [13]: well tolerated with relatively mild toxicity for an anthracycline
COc1cccc2c1C(=N)c1c(O)c3c(c(O)c1C2=O)C[C@@](O)(CCO)C[C@@H]3OC1CC(N2C=CCC2)C(O)C(C)O1 (stereo partly drawn) [Compound IV, 2-pyrrolino-5-imino-13-deoxydoxorubicin]						81 times					about equal in potency	1.03* g	53%	reduced significantly statistically	0.84 µM	IC50 ([1]; SW872, 48 h): 0.57 ± 0.23 µM; IC50 ([2]; 48 h): 0.44 ± 0.13 µM; IC50 ([3]; 48 h): 0.175 ± 0.015 µM; IC50 ([4]; HeLa, 48 h): 0.467 ± 0.104 µM; IC50 ([5]; T47D, 48 h): 0.817 ± 0.561 µM; IC50 [6]: 0.49 µM; times more potent than compound I for inhibiting cell growth of cancer cells, on average ([6]; ratio of average IC50 values): 18 times; times more potent than compound III for inhibiting cell growth of cancer cells, on average ([6]; ratio of average IC50 values): 20 times; cytotoxicity against HADF (normal) cells relative to doxorubicin I ([7]; 39.75/18.9): half as cytotoxic; IC50 ([7]; Homo sapiens): 39.8 µM; IC50 ([8]; MES-SA): 0.76 ± 0.16 µM; IC50 ([9]; MES-SA): 0.66 ± 0.003 µM; times more potent than compound I in an anthracycline resistant cell line ([9]; MES-SA/MX2): 12 times; IC50 [10]: 3.51 ± 1.79 µM; tolerability in mice [11, 26]: well tolerated by the mice with no deaths and no overt signs of toxicity; times more potent in the presence of a nontherapeutic amount (IC10) of the other compound ([12]; HT1080, IC50 alone / IC50 in combination): 12 times; IC50 ([12]; Homo sapiens, HT-1080, 48 h, compound alone, HT1080): 12.5 µM; IC50 ([12]; Homo sapiens, HT-1080, 48 h, read-out: IC50 of compound IV in the presence of an IC10 of compound III, HT1080): 1 µM; IC50 ([12]; read-out: IC50 of compound IV in the presence of an IC10 of compound III, HT1080): 1.01 µM
COc1cccc2c1C(=O)c1c(O)c3c(c(O)c1C2=O)C[C@@](O)(C(=O)CO)C[C@@H]3OC1CC(N2C=CCC2)C(O)C(C)O1 (stereo partly drawn) [compound II, 3′-deamino-3′-(2″-pyrroline-1″-yl)doxorubicin]																toxicity relative to doses required for an anticancer effect [14]: toxic or lethal at or below doses that are required for an anticancer effect; selectivity for cancer cells versus normal cells [15]: little or no selectivity; ability of DNA modifications to inhibit catalytic activity of topoisomerase II [16]: does not differ significantly from that of doxorubicin
